In US11964953B2, “Substituted aminothiazoles as DGKzeta inhibitors for immune activation” (Bayer Aktiengesellschaft, priority 2020, dated 2024):
pIC50: −log10 of the molar value.

Target: human DGKζ (Homo sapiens (Human), UniProt Q13574)
Test: Human DGKζ kinase activity inhibition assay (ADP-Glo)
Format: biochemical
Conditions: in vitro human DGKζ kinase activity inhibition assay; read-out: IC50
Procedure, shortened: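 Enzyme was C-terminally FLAG-tagged full-length recombinant human DGKζ from baculovirus-infected insect cells. Substrate preparation used octyl-β-D-glucopyranoside in 50 mM MOPS pH 7.4 with sonication; ADP generated was quantified by ADP-Glo luminescence as activity measure.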

human DGKζ, sequence (Q13574 other isoform, or with tags, fused parts or gaps): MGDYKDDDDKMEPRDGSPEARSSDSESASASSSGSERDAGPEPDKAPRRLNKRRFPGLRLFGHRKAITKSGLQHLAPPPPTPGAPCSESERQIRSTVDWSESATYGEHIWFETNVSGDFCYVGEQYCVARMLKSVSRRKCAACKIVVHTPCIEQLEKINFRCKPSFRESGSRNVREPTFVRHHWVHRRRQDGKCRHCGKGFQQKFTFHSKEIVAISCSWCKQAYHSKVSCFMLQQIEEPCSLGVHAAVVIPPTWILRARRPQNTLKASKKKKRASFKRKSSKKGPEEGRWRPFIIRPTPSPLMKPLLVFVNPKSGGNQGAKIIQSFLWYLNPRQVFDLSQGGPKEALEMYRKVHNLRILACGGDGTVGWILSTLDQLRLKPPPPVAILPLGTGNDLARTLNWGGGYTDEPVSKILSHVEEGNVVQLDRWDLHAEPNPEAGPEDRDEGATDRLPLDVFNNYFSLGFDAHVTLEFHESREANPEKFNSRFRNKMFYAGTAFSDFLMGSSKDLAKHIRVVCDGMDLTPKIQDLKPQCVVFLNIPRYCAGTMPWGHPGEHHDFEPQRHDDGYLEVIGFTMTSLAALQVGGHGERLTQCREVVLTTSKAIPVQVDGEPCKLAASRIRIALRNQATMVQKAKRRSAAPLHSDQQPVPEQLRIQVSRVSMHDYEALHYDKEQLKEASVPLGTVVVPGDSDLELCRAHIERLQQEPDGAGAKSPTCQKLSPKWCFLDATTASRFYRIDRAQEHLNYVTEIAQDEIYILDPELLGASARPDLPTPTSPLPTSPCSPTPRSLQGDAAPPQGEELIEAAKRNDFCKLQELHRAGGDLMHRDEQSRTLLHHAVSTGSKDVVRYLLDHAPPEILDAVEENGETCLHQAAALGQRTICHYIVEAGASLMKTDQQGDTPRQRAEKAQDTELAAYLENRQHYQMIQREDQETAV

Row | Compound | pIC50
1 | CC(C(N)=O)N(c1nc(N)c(C(=O)c2ccccc2)s1)c1ccccc1F (racemic) [Example 75, rac-2-(N-(4-amino-5-benzoyl-thiazol-2-yl)-2-fluoro-anilino)propanamide] | 6.38
2 | CC(C(N)=O)N(c1ccc(F)cc1)c1nc(N)c(C(=O)c2ccc(OCC(=O)N(C)C3CCN(C)CC3)cc2)s1 (racemic) [Example 101, rac-2-(N-[4-amino-5-[4-[2-[methyl-(1-methyl-4-piperidyl)amino]-2-oxo-ethoxy]benzoyl]thiazol-2-yl]-4-fluoro-anilino)propanamide] | 6.48
3 | CC(C(N)=O)N(c1ccc(F)cc1)c1nc(N)c(C(=O)c2ccccc2)s1 (single isomer, unassigned) [Example 61.1, 2-(N-(4-amino-5-benzoyl-thiazol-2-yl)-4-fluoro-anilino)propanamide] | 5.29
4 | CC(C(N)=O)N(c1ccc(OC(F)(F)F)nc1)c1nc(N)c(C(=O)c2ccc(OC(F)F)nc2)s1 (racemic) [Example 251, rac-2-[[4-amino-5-[6-(difluoromethoxy)pyridine-3-carbonyl]thiazol-2-yl]-[6-(trifluoromethoxy)-3-pyridyl]amino]propanamide] | 7.06
5 | CC(C(N)=O)N(c1nc(N)c(C(=O)c2ccccc2)s1)c1ccc(OC(F)(F)F)cc1F (racemic) [Example 239, rac-2-[N-(4-amino-5-benzoyl-thiazol-2-yl)-2-fluoro-4-(trifluoromethoxy)anilino]propanamide] | 6.63
6 | Cc1ccccc1N(c1nc(N)c(C(=O)c2ccccc2)s1)C(C)C(N)=O (single isomer, unassigned) [Example 77.2, 2-(N-(4-amino-5-benzoyl-thiazol-2-yl)-2-methyl-anilino)propanamide] | 4.99
7 | CC(C(N)=O)N(c1nc(N)c(C(=O)c2ccccc2)s1)c1ccccc1F (single isomer, unassigned) [Example 75.1, 2-(N-(4-amino-5-benzoyl-thiazol-2-yl)-2-fluoro-anilino)propanamide] | < 4.70
8 | COc1ccc(N(c2nc(N)c(C(=O)c3ccccc3)s2)C(C)C(N)=O)cc1 (racemic) [Example 66, rac-2-(N-(4-amino-5-benzoyl-thiazol-2-yl)-4-methoxy-anilino)propanamide] | 6.44
9 | CC(C(N)=O)N(c1ccc(F)cc1)c1nc(N)c(C(=O)c2ccc(C#N)c(F)c2)s1 (single isomer, unassigned) [Example 21.1, 2-(N-[4-amino-5-(4-cyano-3-fluoro-benzoyl)thiazol-2-yl]-4-fluoro-anilino)propanamide] | 5.26
10 | CC(C(N)=O)N(c1ccc(F)cc1)c1nc(N)c(C(=O)c2ccc(N3CCCC3)cc2)s1 (racemic) [Example 181, rac-2-(N-[4-amino-5-(4-pyrrolidin-1-ylbenzoyl)thiazol-2-yl]-4-fluoro-anilino)propanamide] | 7.19
11 | CC(C(N)=O)N(c1ccc(F)cc1)c1nc(N)c(C(=O)c2ccc(Cn3cccn3)cc2)s1 (racemic) [Example 179, rac-2-(N-[4-amino-5-[4-(pyrazol-1-ylmethyl)benzoyl]thiazol-2-yl]-4-fluoro-anilino)propanamide] | 7.24
12 | CC(C)Oc1ccc(N(c2nc(N)c(C(=O)c3ccccc3)s2)C(C)C(N)=O)cc1 (racemic) [Example 3, rac-2-(N-(4-amino-5-benzoyl-thiazol-2-yl)-4-isopropoxy-anilino)propanamide] | 6.03
13 | CC(C(N)=O)N(c1ccc(Cl)cc1)c1nc(N)c(C(=O)c2ccncc2)s1 (single isomer, unassigned) [Example 57.1, 2-(N-[4-amino-5-(pyridine-4-carbonyl)thiazol-2-yl]-4-chloro-anilino)propanamide] | 6.86
14 | CC(C(N)=O)N(c1ccc(F)cc1)c1nc(N)c(C(=O)c2ccc(OCC(=O)NCC(F)(F)F)cc2)s1 (racemic) [Example 99, rac-2-(N-[4-amino-5-[4-[2-oxo-2-(2,2,2-trifluoroethylamino)ethoxy]benzoyl]thiazol-2-yl]-4-fluoro-anilino)propanamide] | 7.12
15 | CC(C(N)=O)N(c1nc(N)c(C(=O)c2ccccc2)s1)c1ccc(OC(F)F)cc1F (racemic) [Example 241, rac-2-[N-(4-amino-5-benzoyl-thiazol-2-yl)-4-(difluoromethoxy)-2-fluoro-anilino]propanamide] | 6.42
16 | COc1ccc(N(c2nc(N)c(C(=O)c3ccc(OC(F)F)cc3)s2)C(C)C(N)=O)cc1 (racemic) [Example 174, rac-2-(N-[4-amino-5-[4-(difluoromethoxy)benzoyl]thiazol-2-yl]-4-methoxy-anilino)propanamide] | 7.29
17 | CC(C(N)=O)N(c1ccc(OC(F)(F)F)nc1)c1nc(N)c(C(=O)c2ccccc2)s1 (racemic) [Example 228, rac-2-[(4-amino-5-benzoyl-thiazol-2-yl)-[6-(trifluoromethoxy)-3-pyridyl]amino]propanamide] | 6.66
18 | CC(C(N)=O)N(c1ccc(OC(F)(F)F)cc1)c1nc(N)c(C(=O)c2ccc(F)cc2)s1 (single isomer, unassigned) [Example 27.1, 2-[N-[4-amino-5-(4-fluorobenzoyl)thiazol-2-yl]-4-(trifluoromethoxy)anilino]propanamide] | 5.06
19 | CC(C(N)=O)N(c1ccc(C(F)F)cc1)c1nc(N)c(C(=O)c2ccncc2)s1 (racemic) [Example 246, rac-2-[N-[4-amino-5-(pyridine-4-carbonyl)thiazol-2-yl]-4-(difluoromethyl)anilino]propanamide] | 6.18

Stronger by pIC50, values ahead:

Row | pIC50 | Compound
20 | 7.48 | CC(C(N)=O)N(c1ccc(F)cc1)c1nc(N)c(C(=O)c2ccc(N3CCC(F)(F)CC3)nc2)s1 (racemic) [Example 284, rac-2-(N-[4-amino-5-[6-(4,4-difluoro-1-piperidyl)pyridine-3-carbonyl]thiazol-2-yl]-4-fluoro-anilino)propanamide]
21 | 7.40 | CC(C(N)=O)N(c1ccc(C(F)F)cc1)c1nc(N)c(C(=O)c2ccc(OC(F)F)nc2)s1 (racemic) [Example 247, rac-2-[N-[4-amino-5-[6-(difluoromethoxy)pyridine-3-carbonyl]thiazol-2-yl]-4-(difluoromethyl)anilino]propanamide]
22 | 8.22 | Cc1nc(N(c2ccc(F)c(F)c2)C(C)C(N)=O)sc1C(=O)c1ccc(OC(F)F)cc1 (single isomer, unassigned) [Example 55.1, 2-(N-[5-[4-(difluoromethoxy)benzoyl]-4-methyl-thiazol-2-yl]-3,4-difluoro-anilino)propanamide]
23 | 7.54 | CC(C(N)=O)N(c1ccc(F)cc1)c1nc(N)c(C(=O)c2ccc(N3CCC(C(F)(F)F)CC3)nc2)s1 (racemic) [Example 275, rac-2-(N-[4-amino-5-[6-[4-(trifluoromethyl)-1-piperidyl]pyridine-3-carbonyl]thiazol-2-yl]-4-fluoro-anilino)propanamide]
24 | 7.87 | CC(C(N)=O)N(c1ccc(Cl)cc1)c1nc(N)c(C(=O)c2ccc(Cl)cc2)s1 (racemic) [Example 41, rac-2-(N-[4-amino-5-(4-chlorobenzoyl)thiazol-2-yl]-4-chloro-anilino)propanamide]
25 | 7.95 | CC(C(N)=O)N(c1ccc(C(F)(F)F)cc1)c1nc(N)c(C(=O)c2ccc(OC(F)F)cc2)s1 (racemic) [Example 43, rac-2-[N-[4-amino-5-[4-(difluoromethoxy)benzoyl]thiazol-2-yl-4-(trifluoromethyl)anilino]propanamide]
26 | 7.60 | CC(C(N)=O)N(c1ccc(Cl)c(Cl)c1)c1nc(N)c(C(=O)c2ccccc2)s1 (racemic) [Example 35, rac-2-(N-(4-amino-5-benzoyl-thiazol-2-yl)-3,4-dichloro-anilino)propanamide]
27 | 8.00 | CC(C(N)=O)N(c1ccc(Cl)c(F)c1)c1nc(N)c(C(=O)c2ccc(O)cc2)s1 (single isomer, unassigned; enantiomer 1) [Example 289, 2-(N-[4-amino-5-(4-hydroxybenzoyl)thiazol-2-yl]-4-chloro-3-fluoro-anilino)propanamide (enantiomer 1)]
28 | 7.35 | CC(C(N)=O)N(c1ccc(OC(F)F)c(F)c1)c1nc(N)c(C(=O)c2ccc(OC(F)F)nc2)s1 (racemic) [Example 209, rac-2-[N-[4-amino-5-[6-(difluoromethoxy)pyridine-3-carbonyl]thiazol-2-yl]-4-(difluoromethoxy)-3-fluoro-anilino]propanamide]
29 | 7.44 | CC(C(N)=O)N(c1ccc(OC(F)(F)F)nc1)c1nc(N)c(C(=O)c2ccc(OC(F)F)cc2)s1 (racemic) [Example 250, rac-2-[[4-amino-5-[4-(difluoromethoxy)benzoyl]thiazol-2-yl]-[6-(trifluoromethoxy)-3-pyridyl]amino]propanamide]
30 | 8.70 | CC(C(N)=O)N(c1ccc(F)c(F)c1)c1nc(N)c(C(=O)c2ccc(NC(=O)OCc3ccccc3)cc2)s1 (racemic) [Example 167, rac-benzyl N-[4-[4-amino-2-(N-(2-amino-1-methyl-2-oxo-ethyl)-3,4-difluoro-anilino)thiazole-5-carbonyl]phenyl]carbamate]
31 | 7.54 | CC1CCN(c2ccc(C(=O)c3sc(N(c4ccc(F)cc4)C(C)C(N)=O)nc3N)cn2)CC1 (racemic) [Example 276, rac-2-(N-[4-amino-5-[6-(4-methyl-1-piperidyl)pyridine-3-carbonyl]thiazol-2-yl]-4-fluoro-anilino)propanamide]
32 | 7.72 | CCOC(=O)c1ccc(C(=O)c2sc(N(c3ccc(Cl)c(F)c3)C(C)C(N)=O)nc2N)cc1 (racemic) [Example 258, rac-Ethyl 4-[4-amino-2-(N-(2-amino-1-methyl-2-oxo-ethyl)-4-chloro-3-fluoro-anilino)thiazole-5-carbonyl]benzoate]
33 | 7.38 | Cc1cc(NC(=O)COc2ccc(C(=O)c3sc(N(c4ccc(F)cc4)C(C)C(N)=O)nc3N)cc2)no1 (racemic) [Example 103, rac-2-(N-[4-amino-5-[4-[2-[(5-methylisoxazol-3-yl)amino]-2-oxo-ethoxy]benzoyl]thiazol-2-yl]-4-fluoro-anilino)propanamide]
